Measurements taken from patent US10005733B2, “N-(4-hydroxy-4-methyl-cyclohexyl)-4-phenyl-benzenesulfonamide and N-(4-hydroxy-4-methyl-cyclohexyl)-4-(2-pyridyl)-benzenesulfonamide compounds and their therapeutic use” (PIMCO 2664 LIMITED, priority 2014, dated 2018).
pIC50: −log10 of the molar value. Read-outs that look alike come from different tables or passages of the source.

How the values were obtained:
[1] = test system: human primary osteoclasts; experiment: Human Primary Osteoclastogenesis (TRAP-positive multinucleated cells from CD14+ monocytes); type: cell-based; conditions: compound added on Day 4 of monocyte differentiation; for pIC50: Homo sapiens, Osteoclast, 96 h
Protocol: In vitro potency of test compounds was determined by incubating them with human primary monocytes and assessing effects on the formation of mature osteoclasts.
The activity of the compounds in reducing the formation of human primary osteoclasts (osteoclastogenesis) was tested using monocytes derived from human whole blood. Monocytes, which are positive for the cell surface marker CD14, are part of the innate immune system found in the circulation. Peripheral blood monocytes differentiate to form several cell types, including osteoclasts. Human primary osteoclasts were […] macrophage colony-stimulating factor (M-CSF) and RANKL+10% foetal calf serum for approximately 6 days, with the exact duration depending on the individual donor of the cells.
When monocytes are cultured under the conditions described above, they form large, multinucleated cells (osteoclasts), which stain positively for tartrate-resistant acid phosphatase (TRAP). TRAP staining was performed between Days 5-6 of culture depending on the individual donor. Osteoclasts are identified as cells which stain positive for TRAP and contain more than 3 nuclei. Compounds which reduce the number of TRAP-positive cells reduce the formation of osteoclasts. The bisphosphonate compound, alendronate, which is used in the treatment of osteoporosis, is used as a positive control for reducing osteoclastogenesis in this assay.
Effects on osteoclast formation were assessed by staining for TRAP and counting cells containing more than three nuclei in each well under a microscope. This allows the absolute determination of cell number in each treated well.
PBMCs (peripheral blood mononuclear cells) were collected from healthy donors and isolated by centrifugation on a layer of Ficoll Paque (GE Healthcare, UK). Monocytes were then sorted from the PBMCs using an autoMACS Pro Separator (MiltenyiBiotec), which sorts cells depending on the markers present on their cell surface. The resulting CD14+ monocytes were resuspended in αMEM supplemented with 10% FCS, 25 ng/mL M-CSF and 100 ng/ml RANKL and added to a 48-well plate, which was then incubated for up to 6 days at 37° C./5% CO2. […] The medium was replenished every 2 days.
At the end of the culture period, the medium was removed from the cells and the cells were fixed at room temperature and then washed with phosphate-buffered saline. TRAP staining solution was then added and the cells incubated at 37° C. until a red colour had developed, after which the reaction was stopped by rinsing with water. The stained cells were air-dried and then photographed using a conventional microscope and the TRAP-positive multinucleated osteoclasts counted by two independent observers.
The average results (n=6) for each concentration of test compound were averaged between the two observers and then expressed as a fold change versus the average control value. The data were then plotted graphically using software from Grafit (Erithacus Software).

[2] = Rodent Pharmacokinetics Studies; type: in vivo, rat; conditions: for bioavailability / half-life: rat, plasma; for bioavailability: read-out: Bioavail, F (%)
Protocol: Absorption and metabolic stability were studied using an in vivo pharmacokinetics assay.
[…] […] For compound HMC-C-01-A the oral administration was formulated in 2% dimethylacetamide/20% hydroxypropyl-β-cyclodextrin in water. Animals were given free access to food throughout the study except for fasting overnight and until 2 hours post dose on the day of dosing.
Blood samples were taken from the retro-orbital plexus at the following time points and placed in microtubes containing 20% K2EDTA solution: […]
Blood samples were centrifuged to obtain plasma, which was transferred to a separate container and frozen at −20° C.
For analysis, samples were thawed at room temperature and prepared by protein precipitation with acetonitrile spiked with internal standard (500 ng/mL glipizide) in the ratio 1:4 with plasma. The samples were then vortexed for 5 minutes and centrifuged for 10 minutes at 20,600×g at 4° C. 100 μL of the supernatant was collected for analysis.
The pharmacokinetic parameters for the test compounds were calculated by Phoenix WinNonlin version 6.3 (Pharsight Corp, CA) using standard non-compartmental methods. Peak plasma concentrations (Cmax) and time of the peak plasma concentration (Tmax) were the observed values. The area under the plasma concentration-time curve (AUC) was determined by use of the linear trapezoidal rule up to the last measurable concentration (AUClast) and thereafter by extrapolation of the terminal elimination phase to infinity (AUCinf). The terminal elimination rate constant (kel) was determined by regression analysis of the linear terminal portion of the log plasma concentration-time curve. The elimination phase half-life (t1/2) was calculated as 0.693/kel.

[3] = test system: mice with collagen-induced arthritis; experiment: Mouse Collagen-Induced Arthritis; type: in vivo; conditions: for % inhibition of disease: oral gavage once daily for 14 days, arthritic index vs control
Protocol: Seven- to eight-week-old male DBA/1j mice were used for all procedures. Animals were housed in groups of 10, and were maintained at 21° C.±2° C. on a 12-hour light/dark cycle with food and water ad libitum. Complete Freund's adjuvant (CFA) was prepared by emulsifying bovine type II collagen at 4 mg/mL with a 4 mg/mL suspension of Mycobacterium tuberculosis H37Ra in Incomplete Freund's adjuvant (IFA) (0.85 mL paraffin oil and 0.15 mL mannide monooleate) in a 1:1 (v/v) ratio. All mice were immunised subcutaneously with 200 μg of bovine type II collagen in CFA. 21 days later, all mice were immunised subcutaneously with 100 μg of bovine type II collagen in IFA. The mice started to develop signs and symptoms of arthritis following the ‘booster’ immunisation.
For macroscopic assessment of arthritis, the following signs were monitored in each paw of each mouse three times per week and summed to generate the Arthritic Index (AI) (the maximum AI for one animal is 16): • 0=no visible effects of arthritis. • 1=oedema and/or erythema of 1 digit. • 2=oedema and/or erythema of 2 digits. • 3=oedema and/or erythema of more than 2 digits. • 4=severe arthritis of entire paw and digits.
Animals were sorted into treatment groups with a mean arthritic index of 2.5 and then dosed once daily for 14 days with compound by oral gavage for test compounds, or by subcutaneous injection at a dose of 10 mg/kg for the positive control, etanercept. After completion of the experiment, the mice were sacrificed.
The data were analysed by generating an average of the arthritic index across each treatment group. The mean arthritic index was then compared to the arthritic index of control (untreated) animals using the following formula to generate a percentage inhibition of disease.

[4] = male Han Wistar rats, 1 mg/kg intravenous, 5% DMSO/10% solutol in saline
[5] = male Han Wistar rats, 5 mg/kg orally, 0.5% CMC/0.1% Tween-80
[6] = 5 mg/kg, male Han Wistar rats, oral in 0.5% CMC/0.1% Tween-80, i.v. in 5% DMSO/10% solutol in saline

With `C[C@]1(O)CC[C@H](NS(=O)(=O)c2ccc(-c3ccc(F)cc3F)cc2)CC1` [ABD900] the “% reduction at 1 μM” value [1] was 90% and the pIC50 [1] was 6.43.
In the case of `C[C@]1(O)CC[C@H](NS(=O)(=O)c2ccc(-c3ncc(Cl)cc3C#N)cc2)CC1` [HMC-N-05-A, 4-(5-Chloro-3-cyanopyridin-2-yl)-N-((1r,4r)-4-hydroxy-4-methylcyclohexyl)benzenesulfonamide], the bioavailability ([2]; male, Han Wistar, 5 mg/kg, rats, footnote (1): 5% DMSO/10% solutol in saline for both oral and intravenous routes) was 88%, the half-life ([2]; male, Han Wistar, rats, footnote (1): 5% DMSO/10% solutol in saline for both routes) was 48 min and the “i.v. AUC” value ([2]; rats, 1 mg/kg i.v., footnote (1): 5% DMSO/10% solutol in saline) was 891 ng/mL/min. The “p.o. AUC” value ([2]; rats, 5 mg/kg orally, footnote (1): 5% DMSO/10% solutol in saline) was 3937 ng/mL/min.
With `Cc1cc(S(=O)(=O)N[C@H]2CC[C@H](O)CC2)ccc1-c1ccc(F)cc1F` [ABD735, reference compound] the “% inhibition of disease” value ([3]; 10 mg/kg/day) was 44%, the “i.v. AUC” value [2, 4] was 1081 ng/mL/min and the “p.o. AUC (ng/mL/min)” value [2, 5] was 8965 ^(4) ng/mL/min. The bioavailability [2, 6] was 83%.
With `C[C@]1(O)CC[C@@H](NS(=O)(=O)c2ccc(-c3ccc(F)cc3F)cc2)CC1` [ABD899, reference compound] the “% inhibition of disease” value ([3]; 10 mg/kg/day) was 77%, the “i.v. AUC” value [2, 4] was 2133 ng/mL/min and the “p.o. AUC (ng/mL/min)” value [2, 5] was 10740 ^(4) ng/mL/min. For the same molecule, the bioavailability [2, 6] was 50%.
With `C[C@]1(O)CC[C@@H](NS(=O)(=O)c2ccc(-c3ccc(C#N)cc3)c(F)c2)CC1` [HMC-C-07-B, 4′-Cyano-2-fluoro-N-((1s,4s)-4-hydroxy-4-methylcyclohexyl)-[1,1′-biphenyl]-4-sulfonamide] the “% inhibition of disease” value ([3]; 0.3 mg/kg/day) was 16%, the “% inhibition of disease” value ([3]; 3 mg/kg/day) was 56% and the “signs and symptoms of disease (in words)” value ([3]; compared with Etanercept (10 mg/kg s.c.), FIG. 1 and 2) was “able to reduce signs and symptoms of disease in mice with collagen-induced arthritis to a similar extent as the clinically utilised treatment, Etanercept”. The “% reduction at 1 μM” value [1] was 90%, the pIC50 [1] was 6.92 and the bioavailability ([2]; male, Han Wistar, iv, 5 mg/kg, rats, footnote (3): i.v. samples at 0.03, 0.1, 0.167, 0.25, 0.5, 1, 2, 4, 6, 8, 24 hours) was 86%. For the same molecule, the half-life ([2]; male, Han Wistar, rats, footnotes (1)(2): 5% DMSO/10% solutol in saline for both routes) was 582 min, the half-life ([2]; male, Han Wistar, rats, study of footnote (3)) was 540 min and the bioavailability ([2]; male, Han Wistar, rats, footnotes (1)(2): 5% DMSO/10% solutol in saline for both routes, sampling incl. 23 and 24 hours, oral 10 mg/kg) was 100%. The “i.v. AUC” value ([2]; rats, 1 mg/kg i.v., footnote (3): i.v. samples at 0.03, 0.1, 0.167, 0.25, 0.5, 1, 2, 4, 6, 8, 24 hours) was 11627 ng/mL/min, the “p.o. AUC” value ([2]; rats, 5 mg/kg orally, study of footnote (3)) was 39463 ng/mL/min and the “p.o. AUC (ng/mL/min)” value ([2]; rats, footnotes (1)(2)(5): dosed at 10 mg/kg orally in 5% DMSO/10% solutol in saline) was 146299 ^(5) ng/mL/min. For the same molecule, the “i.v. AUC” value ([2]; rats, footnotes (1)(2): 1 mg/kg i.v. in 5% DMSO/10% solutol in saline, sampling incl. 23 and 24 hours) was 24072 ng/mL/min.
